In patent US9738634B2, “Heterocyclic amide compound and herbicide” (SYNGENTA PARTICIPATIONS AG, priority 2013, dated 2017):

Experiments:
Format in all cases: in vivo
barnyard grass [1] = test: Test Example 1: weedkilling efficacy, preemergent weed treatment in the submerged state; A: barnyard grass; conditions: treatment dosage 252 g/ha
Procedure, shortened: (§1)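 Submerged pre-emergence treatment, water-surface application of compound emulsion at g/ha dosages; 4 cm flooded alluvial soil, weeds sown and 2.5-leaf rice transplanted same day. Rated after 3 weeks, greenhouse.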

bulrush [2] = test: Test Example 1: weedkilling efficacy, preemergent weed treatment in the submerged state; B: bulrush; conditions: treatment dosage 252 g/ha
Procedure, shortened: as §1

oval-leafed pondweed [3] = test: Test Example 1: weedkilling efficacy, preemergent weed treatment in the submerged state; C: oval-leafed pondweed; conditions: treatment dosage 252 g/ha
Procedure, shortened: as §1

transplanted rice = test: Test Example 1: preemergent weed treatment in the submerged state, effect on crop; a: transplanted rice; conditions: treatment dosage 252 g/ha
Procedure, shortened: as §1

barnyard grass [4] = test: Test Example 2: weedkilling efficacy, growth period weed treatment in the submerged state; A: barnyard grass; conditions: treatment dosage 252 g/ha
Procedure, shortened: (§2)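 Seedlings at 1-2 leaves in 4 cm-deep submerged alluvial soil received emulsion formulations on the water surface, dosed per hectare; effects were judged 3 weeks on.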

bulrush [5] = test: Test Example 2: weedkilling efficacy, growth period weed treatment in the submerged state; B: bulrush; conditions: treatment dosage 252 g/ha
Procedure, shortened: as §2

oval-leafed pondweed [6] = test: Test Example 2: weedkilling efficacy, growth period weed treatment in the submerged state; C: oval-leafed pondweed; conditions: treatment dosage 252 g/ha
Procedure, shortened: as §2

crabgrass [7] = test: Test Example 3: weedkilling efficacy through soil treatment; D: crabgrass; conditions: treatment dosage 315 g/ha
Procedure, shortened: (§3)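 Crop and weed responses were judged three weeks after a uniform surface spray of the water-diluted emulsion at the given g/ha rate. Seeds sat beneath about 1.5 cm of sterilized diluvial soil, and boxes stood in a greenhouse at 25 to 30° C.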

green foxtail [8] = test: Test Example 3: weedkilling efficacy through soil treatment; E: green foxtail; conditions: treatment dosage 315 g/ha
Procedure, shortened: as §3

black-grass [9] = test: Test Example 3: weedkilling efficacy through soil treatment; H: black-grass; conditions: treatment dosage 315 g/ha
Procedure, shortened: as §3

Italian ryegrass [10] = test: Test Example 3: weedkilling efficacy through soil treatment; I: Italian ryegrass; conditions: treatment dosage 315 g/ha
Procedure, shortened: as §3

Indian mallow [11] = test: Test Example 3: weedkilling efficacy through soil treatment; K: Indian mallow; conditions: treatment dosage 315 g/ha
Procedure, shortened: as §3

redroot pigweed [12] = test: Test Example 3: weedkilling efficacy through soil treatment; L: redroot pigweed; conditions: treatment dosage 315 g/ha
Procedure, shortened: as §3

fig-leafed goosefoot [13] = test: Test Example 3: weedkilling efficacy through soil treatment; M: fig-leafed goosefoot; conditions: treatment dosage 315 g/ha
Procedure, shortened: as §3

chickweed [14] = test: Test Example 3: weedkilling efficacy through soil treatment; N: chickweed; conditions: treatment dosage 315 g/ha
Procedure, shortened: as §3

catchweed [15] = test: Test Example 3: weedkilling efficacy through soil treatment; O: catchweed; conditions: treatment dosage 315 g/ha
Procedure, shortened: as §3

birds-eye speedwell [16] = test: Test Example 3: weedkilling efficacy through soil treatment; p: birds-eye speedwell; conditions: treatment dosage 315 g/ha
Procedure, shortened: as §3

directly sown rice [17] = test: Test Example 3: soil treatment, effect on crop; b: directly sown rice; conditions: treatment dosage 315 g/ha
Procedure, shortened: as §3

corn [18] = test: Test Example 3: soil treatment, effect on crop; c: corn; conditions: treatment dosage 315 g/ha
Procedure, shortened: as §3

soybean [19] = test: Test Example 3: soil treatment, effect on crop; d: soybean; conditions: treatment dosage 315 g/ha
Procedure, shortened: as §3

wheat [20] = test: Test Example 3: soil treatment, effect on crop; e: wheat; conditions: treatment dosage 315 g/ha
Procedure, shortened: as §3

beet [21] = test: Test Example 3: soil treatment, effect on crop; f: beet; conditions: treatment dosage 315 g/ha
Procedure, shortened: as §3

crabgrass [22] = test: Test Example 4: weedkilling efficacy by foliar treatment; D: crabgrass; conditions: treatment dosage 315 g/ha
Procedure, shortened: (§4)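 Seeds are spot-sown into sterilized diluvial soil and covered with about 1.5 cm of soil. After 14 days' greenhouse growth at 25 to 30° C, plants are sprayed on stems and leaves with diluted emulsion at the stated g/ha rate, then scored at 3 weeks.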

green foxtail [23] = test: Test Example 4: weedkilling efficacy by foliar treatment; E: green foxtail; conditions: treatment dosage 315 g/ha
Procedure, shortened: as §4

black-grass [24] = test: Test Example 4: weedkilling efficacy by foliar treatment; H: black-grass; conditions: treatment dosage 315 g/ha
Procedure, shortened: as §4

Italian ryegrass [25] = test: Test Example 4: weedkilling efficacy by foliar treatment; I: Italian ryegrass; conditions: treatment dosage 315 g/ha
Procedure, shortened: as §4

Indian mallow [26] = test: Test Example 4: weedkilling efficacy by foliar treatment; K: Indian mallow; conditions: treatment dosage 315 g/ha
Procedure, shortened: as §4

redroot pigweed [27] = test: Test Example 4: weedkilling efficacy by foliar treatment; L: redroot pigweed; conditions: treatment dosage 315 g/ha
Procedure, shortened: as §4

fig-leafed goosefoot [28] = test: Test Example 4: weedkilling efficacy by foliar treatment; M: fig-leafed goosefoot; conditions: treatment dosage 315 g/ha
Procedure, shortened: as §4

chickweed [29] = test: Test Example 4: weedkilling efficacy by foliar treatment; N: chickweed; conditions: treatment dosage 315 g/ha
Procedure, shortened: as §4

catchweed [30] = test: Test Example 4: weedkilling efficacy by foliar treatment; O: catchweed; conditions: treatment dosage 315 g/ha
Procedure, shortened: as §4

birds-eye speedwell [31] = test: Test Example 4: weedkilling efficacy by foliar treatment; p: birds-eye speedwell; conditions: treatment dosage 315 g/ha
Procedure, shortened: as §4

directly sown rice [32] = test: Test Example 4: foliar treatment, effect on crop; b: directly sown rice; conditions: treatment dosage 315 g/ha
Procedure, shortened: as §4

corn [33] = test: Test Example 4: foliar treatment, effect on crop; c: corn; conditions: treatment dosage 315 g/ha
Procedure, shortened: as §4

soybean [34] = test: Test Example 4: foliar treatment, effect on crop; d: soybean; conditions: treatment dosage 315 g/ha
Procedure, shortened: as §4

wheat [35] = test: Test Example 4: foliar treatment, effect on crop; e: wheat; conditions: treatment dosage 315 g/ha
Procedure, shortened: as §4

beet [36] = test: Test Example 4: foliar treatment, effect on crop; f: beet; conditions: treatment dosage 315 g/ha
Procedure, shortened: as §4

SMILES	A (barnyard grass) weedkilling efficacy grade (barnyard grass [1])	B (bulrush) weedkilling efficacy grade (bulrush [2])	C (oval-leafed pondweed) weedkilling efficacy grade (oval-leafed pondweed [3])	a (transplanted rice) effect on crop grade (transplanted rice)	A (barnyard grass) weedkilling efficacy grade (barnyard grass [4])	B (bulrush) weedkilling efficacy grade (bulrush [5])	C (oval-leafed pondweed) weedkilling efficacy grade (oval-leafed pondweed [6])	D (crabgrass) weedkilling efficacy grade (crabgrass [7])	E (green foxtail) weedkilling efficacy grade (green foxtail [8])	H (black-grass) weedkilling efficacy grade (black-grass [9])	I (Italian ryegrass) weedkilling efficacy grade (Italian ryegrass [10])	K (Indian mallow) weedkilling efficacy grade (Indian mallow [11])	L (redroot pigweed) weedkilling efficacy grade (redroot pigweed [12])	M (fig-leafed goosefoot) weedkilling efficacy grade (fig-leafed goosefoot [13])	N (chickweed) weedkilling efficacy grade (chickweed [14])	O (catchweed) weedkilling efficacy grade (catchweed [15])	P (birds-eye speedwell) weedkilling efficacy grade (birds-eye speedwell [16])	b (directly sown rice) effect on crop grade (directly sown rice [17])	c (corn) effect on crop grade (corn [18])	d (soybean) effect on crop grade (soybean [19])	further results
CC1=C(c2ccccc2)C(=O)N(C(C)(C)C(=O)Nc2nc(-c3ccccc3)ns2)CO1 [B-1-17]	5 (weed kill ratio 90% or more, (practically complete withering))	5 (weed kill ratio 90% or more, (practically complete withering))	5 (weed kill ratio 90% or more, (practically complete withering))	0 (weed kill ratio 5% or less (practically no effect))	5 (weed kill ratio 90% or more, (practically complete withering))	5 (weed kill ratio 90% or more, (practically complete withering))	4 (weed kill ratio 70% or more, less than 90%)	5 (weed kill ratio 90% or more, (practically complete withering))	5 (weed kill ratio 90% or more, (practically complete withering))	5 (weed kill ratio 90% or more, (practically complete withering))	5 (weed kill ratio 90% or more, (practically complete withering))	0 (weed kill ratio 5% or less (practically no effect))	4 (weed kill ratio 70% or more, less than 90%)	5 (weed kill ratio 90% or more, (practically complete withering))	3 (weed kill ratio 40% or more, less than 70%)	5 (weed kill ratio 90% or more, (practically complete withering))	5 (weed kill ratio 90% or more, (practically complete withering))	0 (weed kill ratio 5% or less (practically no effect))	0 (weed kill ratio 5% or less (practically no effect))	0 (weed kill ratio 5% or less (practically no effect))	e (wheat) effect on crop grade (wheat [20]): 3 (weed kill ratio 40% or more, less than 70%); f (beet) effect on crop grade (beet [21]): 0 (weed kill ratio 5% or less (practically no effect)); D (crabgrass) weedkilling efficacy grade (crabgrass [22]): 5 (weed kill ratio 90% or more, (practically complete withering)); E (green foxtail) weedkilling efficacy grade (green foxtail [23]): 5 (weed kill ratio 90% or more, (practically complete withering)); H (black-grass) weedkilling efficacy grade (black-grass [24]): 5 (weed kill ratio 90% or more, (practically complete withering)); I (Italian ryegrass) weedkilling efficacy grade (Italian ryegrass [25]): 1 (weed kill ratio 5% or more, less than 20%); K (Indian mallow) weedkilling efficacy grade (Indian mallow [26]): 5 (weed kill ratio 90% or more, (practically complete withering)); L (redroot pigweed) weedkilling efficacy grade (redroot pigweed [27]): 5 (weed kill ratio 90% or more, (practically complete withering)); M (fig-leafed goosefoot) weedkilling efficacy grade (fig-leafed goosefoot [28]): 4 (weed kill ratio 70% or more, less than 90%); N (chickweed) weedkilling efficacy grade (chickweed [29]): 3 (weed kill ratio 40% or more, less than 70%); O (catchweed) weedkilling efficacy grade (catchweed [30]): 4 (weed kill ratio 70% or more, less than 90%); P (birds-eye speedwell) weedkilling efficacy grade (birds-eye speedwell [31]): 3 (weed kill ratio 40% or more, less than 70%); b (directly sown rice) effect on crop grade (directly sown rice [32]): 4 (weed kill ratio 70% or more, less than 90%); c (corn) effect on crop grade (corn [33]): 5 (weed kill ratio 90% or more, (practically complete withering)); d (soybean) effect on crop grade (soybean [34]): 0 (weed kill ratio 5% or less (practically no effect)); e (wheat) effect on crop grade (wheat [35]): 0 (weed kill ratio 5% or less (practically no effect)); f (beet) effect on crop grade (beet [36]): 0 (weed kill ratio 5% or less (practically no effect))
CCc1nsc(NC(=O)C(C)(C)N2COC(C)=C(c3ccccc3)C2=O)n1 [B-1-14]	5 (weed kill ratio 90% or more, (practically complete withering))	5 (weed kill ratio 90% or more, (practically complete withering))	5 (weed kill ratio 90% or more, (practically complete withering))	1 (weed kill ratio 5% or more, less than 20%)	5 (weed kill ratio 90% or more, (practically complete withering))	5 (weed kill ratio 90% or more, (practically complete withering))	5 (weed kill ratio 90% or more, (practically complete withering))	5 (weed kill ratio 90% or more, (practically complete withering))	5 (weed kill ratio 90% or more, (practically complete withering))	5 (weed kill ratio 90% or more, (practically complete withering))	5 (weed kill ratio 90% or more, (practically complete withering))	3 (weed kill ratio 40% or more, less than 70%)	5 (weed kill ratio 90% or more, (practically complete withering))	5 (weed kill ratio 90% or more, (practically complete withering))	4 (weed kill ratio 70% or more, less than 90%)	5 (weed kill ratio 90% or more, (practically complete withering))	5 (weed kill ratio 90% or more, (practically complete withering))	5 (weed kill ratio 90% or more, (practically complete withering))	0 (weed kill ratio 5% or less (practically no effect))	3 (weed kill ratio 40% or more, less than 70%)	e (wheat) effect on crop grade (wheat [20]): 5 (weed kill ratio 90% or more, (practically complete withering)); f (beet) effect on crop grade (beet [21]): 5 (weed kill ratio 90% or more, (practically complete withering)); D (crabgrass) weedkilling efficacy grade (crabgrass [22]): 5 (weed kill ratio 90% or more, (practically complete withering)); E (green foxtail) weedkilling efficacy grade (green foxtail [23]): 5 (weed kill ratio 90% or more, (practically complete withering)); H (black-grass) weedkilling efficacy grade (black-grass [24]): 5 (weed kill ratio 90% or more, (practically complete withering)); I (Italian ryegrass) weedkilling efficacy grade (Italian ryegrass [25]): 5 (weed kill ratio 90% or more, (practically complete withering)); K (Indian mallow) weedkilling efficacy grade (Indian mallow [26]): 5 (weed kill ratio 90% or more, (practically complete withering)); L (redroot pigweed) weedkilling efficacy grade (redroot pigweed [27]): 5 (weed kill ratio 90% or more, (practically complete withering)); M (fig-leafed goosefoot) weedkilling efficacy grade (fig-leafed goosefoot [28]): 4 (weed kill ratio 70% or more, less than 90%); N (chickweed) weedkilling efficacy grade (chickweed [29]): 4 (weed kill ratio 70% or more, less than 90%); O (catchweed) weedkilling efficacy grade (catchweed [30]): 4 (weed kill ratio 70% or more, less than 90%); P (birds-eye speedwell) weedkilling efficacy grade (birds-eye speedwell [31]): 4 (weed kill ratio 70% or more, less than 90%); b (directly sown rice) effect on crop grade (directly sown rice [32]): 4 (weed kill ratio 70% or more, less than 90%); c (corn) effect on crop grade (corn [33]): 3 (weed kill ratio 40% or more, less than 70%); d (soybean) effect on crop grade (soybean [34]): 4 (weed kill ratio 70% or more, less than 90%); e (wheat) effect on crop grade (wheat [35]): 4 (weed kill ratio 70% or more, less than 90%); f (beet) effect on crop grade (beet [36]): 5 (weed kill ratio 90% or more, (practically complete withering))
